Here are results for 20 compounds from patent US12336991B2, “Factor XIIA inhibitors” (UNIVERSITY OF LEEDS, priority 2018, dated 2025).

pKi: −log10 of the molar value. Where only a bound is given, the exact number is not on record here.

Holding throughout (type): biochemical
One assay concerns the target T1, FXIIa (Homo sapiens, UniProt P00748).
T1 sequence (P00748 373-615 limits assumed): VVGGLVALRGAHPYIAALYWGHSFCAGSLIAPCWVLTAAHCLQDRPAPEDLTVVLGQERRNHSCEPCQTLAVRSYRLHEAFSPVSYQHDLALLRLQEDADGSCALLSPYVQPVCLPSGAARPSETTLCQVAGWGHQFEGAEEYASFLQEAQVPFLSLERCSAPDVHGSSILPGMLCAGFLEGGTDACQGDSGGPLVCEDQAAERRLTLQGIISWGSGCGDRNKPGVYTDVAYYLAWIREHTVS
T1 sequence (P00748 20-372 partner limits assumed): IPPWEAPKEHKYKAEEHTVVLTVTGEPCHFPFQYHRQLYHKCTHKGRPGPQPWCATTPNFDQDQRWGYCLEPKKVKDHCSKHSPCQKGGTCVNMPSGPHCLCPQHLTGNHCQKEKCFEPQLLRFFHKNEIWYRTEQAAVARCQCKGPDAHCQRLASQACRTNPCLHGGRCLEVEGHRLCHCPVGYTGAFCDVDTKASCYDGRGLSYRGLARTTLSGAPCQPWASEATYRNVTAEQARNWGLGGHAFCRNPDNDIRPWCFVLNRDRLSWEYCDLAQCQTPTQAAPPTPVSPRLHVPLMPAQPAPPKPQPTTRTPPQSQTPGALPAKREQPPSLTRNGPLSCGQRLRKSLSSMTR
Put plainly: Determination of Factor XIIa inhibition, chromogenic substrate S-2302 assay. As to conditions: human FXIIa alpha. Here is the method:
(§1) The activities of the compounds of the invention have been determined in vitro using the following assays protocols for the screening of activity of FXIIa and other proteases. Each of these assays were performed in a purified system employing the use of chromogenic assays in microplate plate wells. Chromogenic peptide substrates mimicking natural protein substrates are attached via an amide bond to a chromogenic group. Paranitroaniline (pNA) is released from the peptide following catalyses by the proteolytic enzyme; the absorbance increases and can be monitored at 405 nm.
(§2) All compounds were dissolved in 100% (v/v) DMSO to a stock concentration of 10 mM, the highest concentration of compound used in each assay is 500 μM. The final concentrations of DMSO were 5% (v/v) in 50 mM Tris 137 mM NaC pH 7.4. Where no test compound was added a final concentration of 5% DMSO was employed.
Determination of Factor XIa Inhibition
Factor XIa activity was measured using a chromogenic substrate S-2302 (Chromogenix). Various concentrations of compound were incubated with 10 nM of FXIIa and incubated at 37° C. for 10 minutes in 50 mM Tris, 137 mM NaCl, pH 7.4, prior to the addition of a final concentration of 450 µM S-2302 chromogenic substrate. Kinetic readings at 405 nm were monitored every 12 secs for a total duration of 3 hours at 37° C. Gradients of initial rates were determined and employed to calculate IC50 values. Values of IC50 were converted to Ki values based on the formula: Ki=IC50/(1+[Substrate]/Km).
The activity of the compounds of the invention has been categorised based on the Ki values, the categories being “*”, “**” and “***”. […] The category “**” refers to compounds with a Ki value of 0.2 μM to 2 μM.

Another assay addresses T2, thrombin (Homo sapiens, UniProt P00734).
T2 construct: FXa (5 nM) and thrombin (5 nM)
Put plainly: Determination of selectivity: thrombin inhibition, chromogenic substrate GPR assay. The note with it: fold selectivity for FXIIa over thrombin. Here is the method:
as §1, §2
(§3) Determination of Selectivity
(§4) To determine selectivity of test compounds, these test compounds were assayed for inhibitory activity against other serine proteases including FXa and thrombin. Essentially compounds at increasing concentrations were incubated with each enzyme: FXa (5 nM) and thrombin (5 nM), for 10 mins at 37° C. followed the appropriate chromogenic substrate, S2765 ([…]), and GPR ([…]) respectively in 50 mM Tris, 137 mM NaCl, pH 7.4. Chromogenic substrates S2765 was from Chromogenix, and GPR from Bachem. Kinetic readings at 405 nm were monitored every 12 secs for a total duration of 3 hours at 37° C. Gradients of initial rates were determined and employed to calculate IC50 values. Values of IC50 were converted to Ki values based on the formula: Ki=IC50/(1+[Substrate]/Km)
(§5) Where [Substrate] denotes the concentration of substrate used in the assay and Km is the determined value of each enzyme with its own substrate.
(§6) The fold selectivity for FXIIa over thrombin for the compounds of the invention has been categorised based on the fold selectivity values, the categories being “+”, “++” and “+++”. The category “+” refers to fold selectivity values less than 10. The category “++” refers to a fold selectivity value of 10 to 100. The category “+++” refers to fold selectivity values greater than 100.

A further assay addresses FXa (Homo sapiens, UniProt P00742). The assay is described as follows: Determination of selectivity: FXa inhibition, chromogenic substrate S2765 assay. The note with it: fold selectivity for FXIIa over FXa. The procedure: as §1, §2, §3, §4, §5, §6
The fold selectivity for FXIIa over FXa for the compounds of the invention has been categorised based on the fold selectivity values, the categories being “o”, “oo” and “ooo”. The category “o” refers to fold selectivity values less than 10. The category “oo” refers to a fold selectivity value of 10 to 100. The category “ooo” refers to fold selectivity values greater than 100.

Chain of FXa (P00742 235-488 limits assumed): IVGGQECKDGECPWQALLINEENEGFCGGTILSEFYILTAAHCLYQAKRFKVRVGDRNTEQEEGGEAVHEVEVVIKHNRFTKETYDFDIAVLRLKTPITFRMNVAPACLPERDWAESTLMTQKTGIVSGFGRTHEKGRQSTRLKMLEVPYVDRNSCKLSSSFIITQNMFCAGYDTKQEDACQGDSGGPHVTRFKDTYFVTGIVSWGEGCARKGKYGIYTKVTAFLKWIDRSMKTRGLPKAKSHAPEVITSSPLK
Chain of FXa (P00742 41-179 partner limits assumed): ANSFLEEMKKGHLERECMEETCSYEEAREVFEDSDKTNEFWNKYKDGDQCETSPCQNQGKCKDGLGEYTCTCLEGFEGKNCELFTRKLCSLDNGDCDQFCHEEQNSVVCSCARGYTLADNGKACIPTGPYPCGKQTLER

For orientation: pKi means −log10 of the Ki, conventionally taken in molar units. Take `Cn1ncc2cc(CNC(=O)[C@@H]3C[C@@H](Cc4cccnc4)CN3C(=O)[C@H](N)CCC(=O)N3CCCC3)ccc21` [Example M05228]: the negative logarithm of the Ki (pKi) on FXIIa is 5.70 to 6.70. Also, on thrombin, the “Thrombin (human)/FXIIa alpha (human)” value was “+++ (fold selectivity values greater than 100)”. In addition, at FXa, the “FXa (human)/FXIIa alpha (human)” value is on record as “∘∘∘”.
In the case of `COc1ccc(C[C@@H]2C[C@@H](C(=O)NCc3ccc4c(c3)nnn4C)N(C(=O)[C@H]3CC(c4c[nH]cn4)CN3)C2)cc1` (stereo partly drawn) [Example M05464], the negative-log Ki (pKi) at FXIIa was below 5.70. Moreover, the “Thrombin (human)/FXIIa alpha (human)” value at thrombin is “++ (fold selectivity value of 10 to 100)”. Besides, the “FXa (human)/FXIIa alpha (human)” value at FXa was “∘∘”.
At FXIIa, `Cn1nnc2cc(CNC(=O)[C@@H]3C[C@@H](Cc4ccncc4)CN3C(=O)[C@@H](CCC(=O)N3CCCC3)NCC(F)F)ccc21` [Example M05269] showed a negative-log Ki (pKi) below 5.70. Also, the “Thrombin (human)/FXIIa alpha (human)” value on thrombin is on record as “++ (fold selectivity value of 10 to 100)”. Moreover, the “FXa (human)/FXIIa alpha (human)” value at FXa is given as “∘∘”.
`Nc1nccc2cc(CNC(=O)[C@@H]3CCCN3C(=O)[C@H](N)CCc3ccccc3)ccc12` [Example M05237] showed a pKi on FXIIa of 5.70 to 6.70. For the same compound, at thrombin, the “Thrombin (human)/FXIIa alpha (human)” value was “+ (fold selectivity values less than 10)”. Moreover, the “FXa (human)/FXIIa alpha (human)” value on FXa is given as “∘∘”.
`Nc1nccc2cc(CNC(=O)[C@@H]3C[C@@H](Cc4cccc(Cl)c4)CN3C(=O)[C@H](N)CCC(=O)N3CCCC3)ccc12` [Example M05266] showed a pKi at FXIIa of 5.70 to 6.70. At thrombin, the “Thrombin (human)/FXIIa alpha (human)” value was “+ (fold selectivity values less than 10)”. The “FXa (human)/FXIIa alpha (human)” value on FXa is reported as “∘∘”.
With `COc1ccc(C[C@@H]2C[C@@H](C(=O)NCc3ccc4c(c3)nnn4C)N(C(=O)[C@H]3C[C@@H](c4ccccc4OC(F)(F)F)CN3)C2)cc1` [Example M05388], the negative-log Ki (pKi) at FXIIa was 5.70 to 6.70. Further, the “Thrombin (human)/FXIIa alpha (human)” value at thrombin is “+++ (fold selectivity values greater than 100)”. Moreover, the “FXa (human)/FXIIa alpha (human)” value at FXa is reported as “∘∘∘”.
The corresponding values for `Cn1nnc2cc(CNC(=O)[C@@H]3C[C@@H](Cc4ccncc4)CN3C(=O)[C@@H](CCC(=O)N3CCCC3)NC(=O)Cc3ccccc3)ccc21` [Example M05267, (2S,4R)-1-((R)-5-Oxo-2-phenylacetylamino-5-pyrrolidin-1-yl-pentanoyl)-4-pyridin-4-ylmethyl-pyrrolidine-2-carboxylic acid (1-methyl-1H-benzotriazol-5-ylmethyl)-amide] are below 5.70, “++ (fold selectivity value of 10 to 100)” and “∘∘”.
`COc1ccc(C[C@@H]2C[C@@H](C(=O)NCc3ccc4c(c3)nnn4C)N(C(=O)[C@H](N)CCC(=O)N3CCCC3(C)C)C2)cc1` [Example M05450] showed a negative logarithm of the Ki (pKi) at FXIIa above 6.70. Moreover, on thrombin, the “Thrombin (human)/FXIIa alpha (human)” value is reported as “+++ (fold selectivity values greater than 100)”. For the same compound, at FXa, the “FXa (human)/FXIIa alpha (human)” value is on record as “∘∘∘”.
With `COc1ccc(C[C@@H]2C[C@@H](C(=O)NCc3ccc4c(c3)nnn4C)N(C(=O)[C@H](N)CCC(=O)N3CC[C@H](F)C3)C2)cc1` [Example M05400], on FXIIa, the negative-log Ki (pKi) was above 6.70. The “Thrombin (human)/FXIIa alpha (human)” value on thrombin is reported as “+++ (fold selectivity values greater than 100)”. Moreover, the “FXa (human)/FXIIa alpha (human)” value at FXa is “∘∘∘”.
Take `Cn1nnc2cc(CNC(=O)[C@@H]3C[C@H](Cc4ccccn4)CN3C(=O)[C@H](N)CCC(=O)N3CCCC3)ccc21` [Example M05296]: the negative-log Ki (pKi) at FXIIa is 5.70 to 6.70. In addition, the “Thrombin (human)/FXIIa alpha (human)” value on thrombin was “+++ (fold selectivity values greater than 100)”. Also, the “FXa (human)/FXIIa alpha (human)” value at FXa was “∘∘∘”.
`COc1ccc(C[C@@H]2C[C@@H](C(=O)NCc3ccc4c(c3)nnn4C)N(C(=O)[C@H](N)CCC(=O)N3C4CCC3COC4)C2)cc1` [Example M05411] had a negative logarithm of the Ki (pKi) on FXIIa of 5.70 to 6.70. For the same compound, the “Thrombin (human)/FXIIa alpha (human)” value at thrombin is recorded as “+++ (fold selectivity values greater than 100)”. In addition, the “FXa (human)/FXIIa alpha (human)” value on FXa is listed as “∘∘∘”.
Regarding `COc1ccc(C[C@@H]2C[C@@H](C(=O)NCc3cc4ccncc4o3)N(C(=O)[C@H](N)CCC(=O)N3CCCC3)C2)cc1` [Example M05465], at FXIIa, the pKi was 5.70 to 6.70. Further, on thrombin, the “Thrombin (human)/FXIIa alpha (human)” value is listed as “+++ (fold selectivity values greater than 100)”. In addition, the “FXa (human)/FXIIa alpha (human)” value on FXa was “∘∘∘”.
`Cn1ncc2cc(CNC(=O)[C@@H]3C[C@@H](c4ccccc4)CN3C(=O)[C@H](N)CCc3ccccc3)ccc21` [Example M05188] showed a negative logarithm of the Ki (pKi) on FXIIa below 5.70. In addition, the “Thrombin (human)/FXIIa alpha (human)” value on thrombin is “++ (fold selectivity value of 10 to 100)”. The “FXa (human)/FXIIa alpha (human)” value on FXa is recorded as “∘∘”.
As to `COc1cccc(CC2C[C@@H](C(=O)NCc3ccc4c(c3)nnn4C)N(C(=O)[C@H](N)CCC(=O)N3CCCC3)C2)c1` (stereo partly drawn) [Example M05300], the pKi on FXIIa was 5.70 to 6.70. In addition, the “Thrombin (human)/FXIIa alpha (human)” value at thrombin is reported as “+++ (fold selectivity values greater than 100)”. Besides, the “FXa (human)/FXIIa alpha (human)” value at FXa is listed as “∘∘∘”.
The corresponding values for `COc1ccc(C[C@@H]2C[C@@H](C(=O)NCc3ccc4c(c3)nnn4C)N(C(=O)[C@H]3C[C@@H](Oc4ccccc4)CN3)C2)cc1` [Example M05351] are below 5.70, “++ (fold selectivity value of 10 to 100)” and “∘∘”.
`COc1ccc(C[C@@H]2C[C@@H](C(=O)NCc3ccc4c(c3)nnn4C)N(C(=O)[C@H](N)CCC(=O)N3CCC[C@@H]3C#N)C2)cc1` [Example M05458] gave a pKi at FXIIa above 6.70. In addition, the “Thrombin (human)/FXIIa alpha (human)” value at thrombin is recorded as “+++ (fold selectivity values greater than 100)”. The “FXa (human)/FXIIa alpha (human)” value at FXa is given as “∘∘∘”.
For `Cc1ccccc1C[C@@H]1C[C@@H](C(=O)NCc2ccc3c(c2)nnn3C)N(C(=O)[C@H]2C[C@@H](c3ccccc3)CN2)C1` [Example M05360], the pKi at FXIIa is 5.70 to 6.70. At thrombin, the “Thrombin (human)/FXIIa alpha (human)” value is “++ (fold selectivity value of 10 to 100)”. Besides, at FXa, the “FXa (human)/FXIIa alpha (human)” value was “∘∘”.
Compound `COc1ccc2c(c1)CCNC2C(=O)N1C[C@H](Cc2ccncc2)C[C@H]1C(=O)NCc1ccc2c(c1)nnn2C` (stereo partly drawn) [Example M05462] gave a negative-log Ki (pKi) at FXIIa of 5.70 to 6.70. Besides, the “Thrombin (human)/FXIIa alpha (human)” value at thrombin was “+++ (fold selectivity values greater than 100)”. For the same compound, the “FXa (human)/FXIIa alpha (human)” value on FXa is listed as “∘∘∘”.
As to `NCc1ccc(CNC(=O)[C@@H]2C[C@H](O)CN2C(=O)[C@H](N)CCc2ccccc2)cc1` [Example M00626], the pKi on FXIIa was below 5.70. Moreover, the “Thrombin (human)/FXIIa alpha (human)” value at thrombin is listed as “++ (fold selectivity value of 10 to 100)”. In addition, the “FXa (human)/FXIIa alpha (human)” value at FXa is reported as “∘∘”.
`Cc1ccc(CC[C@@H](N)C(=O)N2CCC[C@H]2C(=O)NCc2ccc(CN)cc2)cc1` [Example M00787] showed a pKi at FXIIa below 5.70. At thrombin, the “Thrombin (human)/FXIIa alpha (human)” value is listed as “+ (fold selectivity values less than 10)”. Besides, the “FXa (human)/FXIIa alpha (human)” value at FXa is recorded as “∘∘”.
